# Measurements from patent US8058264B2, “Pharmaceutical compositions comprising CB1 cannabinoid receptor antagonists and potassium channel openers for the treatment of obesity and related conditions” (Abbott Products GmbH, priority 2004, dated 2011).
# What was measured:
# [1] = system: Kir6.2/SUR1 KATP channel; experiment: Opening of the Kir6.2/SUR1 KATP channel; type: biochemical
# [2] = system: fatty Zucker rat; experiment: Acute oral glucose tolerance test (OGTT) in the fatty Zucker rat; type: in vivo; settings: acute administration (over a period of 1 day)
# [3] = system: obese patients; settings: chronic treatment, e.g. over a period of 1 year; cited from earlier work
compound,measurement,setting,value
"Cc1c(C(=O)NN2CCCCC2)nn(-c2ccc(Cl)cc2Cl)c1-c1ccc(Cl)cc1 [5-(4-chlorophenyl)-1-(2,4-dichlorophenyl)-4-methyl-N-piperidin-1-yl-1H-pyrazole-3-carboxamide]",opener activity at the Kir6.2/SUR1 KATP channel,[1],potent opener
same,glucose plasma levels in OGTT,[2],strong increase in glucose plasma levels
same,insulin release in OGTT,[2],significantly reduced inhibition of insulin release
same,glucose tolerance and insulin resistance in obese patients,[3],improve glucose tolerance and insulin resistance
